From patent publication US4139621A, “N-(4-substituted-3,5-dichloro-phenyl)-piperazines” (Beecham Group Limited, priority 1976, dated 1979)

Columns and labels:
[1] = Anti-Catapresan test (anti-catapresan induced fighting test); format: in vivo; settings: po; mouse
Experimental: (§1) 1-(3,4,5-Trichlorophenyl)piperazine hydrochloride [compound A] was tested in various conventional screens used for determining the effect of major tranquillizors. In these tests chlopromazine was used as a positive control. The results obtained were as follows:
(§2) The activity of Compound A in the anti-catapresan induced fighting test and the inhibition of conditioned avoidance responses in the shuttlebox tests indicate that Compound A has potential neuroleptic/anxiolytic activity in man.

[2] = Shuttlebox (conditioned avoidance behaviour in the rat), % inhibition of crossing rate; format: in vivo
Experimental: as §1, §2

[3] = Induction of catalepsy in the rat; format: in vivo
Experimental: as §1
catalepsy in 0% at 54% at
the rat. 40 mg/kg s.c. 10 mg/kg i.p.
as §2

[4] = Activity in man extrapolated from potency relative to chlorpromazine in animal tests; settings: orally, inferred from potency relative to chlorpromazine in animal tests
From the text: as §2

SMILES | ED50 [1] [mg/kg] | % inhibition of crossing rate, Shuttlebox ([2]; 10 mg/kg p.o.) [%] | Induction of catalepsy ([3]; 10 mg/kg i.p.) [%] | % inhibition of crossing rate, Shuttlebox ([2]; 5 mg/kg p.o.) [%] | cataleptic activity [3] | Induction of catalepsy ([3]; 40 mg/kg s.c.) [%] | daily doses at which active in man [4] [mg/kg]
CN(C)CCCN1c2ccccc2Sc2ccc(Cl)cc21 [Chlorpromazine, chlorpromazine, reference compound] | 2.8 | -67 | 54 | – | – | – | –
Cl.Clc1cc(N2CCNCC2)cc(Cl)c1Cl [Compound A, 1-(3,4,5-Trichlorophenyl)piperazine hydrochloride] | 6 | – | – | -73 | lack of cataleptic activity | 0 | 0.2 to 10
